Test results taken from PubChem BioAssay (NCI).
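Five concentrations, 48 hours, 96-well plates. TGI is the concentration that stops growth completely.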

How the values were obtained:
Assay in all cases: NCI anticancer screen, dose series, 48 h
[1] = test system: RPMI-8226 leukemia
[2] = test system: SNB-75 CNS
[3] = test system: OVCAR-5 ovarian
[4] = test system: NCI-H23 lung
[5] = test system: U251 CNS
[6] = test system: DU-145 prostate
[7] = test system: NCI/ADR-RES ovarian
[8] = test system: SF-295 CNS
[9] = test system: CCRF-CEM leukemia
[10] = test system: NCI-H460 lung
[11] = test system: SNB-19 CNS
[12] = test system: HS 578T breast
[13] = test system: SK-MEL-28 melanoma
[14] = test system: SF-268 CNS
[15] = test system: EKVX NSCLC
[16] = test system: KM12 colon
[17] = test system: SW-620 colon
[18] = test system: TK-10 renal
[19] = test system: HL-60(TB) leukemia

For `O=C1c2cccnc2S(=O)N1Cc1ccccc1` (stereo unspecified), the TGI [1] was over 100 µM, the TGI [2] was over 100 µM and the TGI [3] was over 100 µM. For the same compound, the TGI [4] was over 100 µM, the TGI [5] was over 100 µM and the TGI [6] was over 100 µM. It also gave a TGI [7] of over 100 µM, a TGI [8] of over 100 µM and a TGI [9] of over 100 µM. It also gave a TGI [10] of over 100 µM, a TGI [11] of over 100 µM and a TGI [12] of over 100 µM. For the same compound, the TGI [13] was over 100 µM, the TGI [14] was over 100 µM and the TGI [15] was over 100 µM. The TGI [16] was over 100 µM, the TGI [17] was over 100 µM and the TGI [18] was over 100 µM.

Compound `Cc1ccc2c(=O)cc(-c3cccc4ccccc34)[nH]c2n1` has a TGI [3] of over 47.1 µM, a TGI [4] of over 100 µM and a TGI [5] of 1.64 µM. The TGI [6] was over 74.7 µM, the TGI [7] was over 100 µM and the TGI [8] was over 100 µM. It also gave a TGI [9] of over 100 µM, a TGI [10] of over 100 µM and a TGI [11] of over 100 µM. The TGI [12] was over 91.5 µM, the TGI [13] was over 100 µM and the TGI [14] was over 32.4 µM. It also gave a TGI [15] of over 100 µM, a TGI [16] of 1.98 µM and a TGI [17] of over 100 µM. For the same compound, the TGI [19] was 0.0318 µM.

`C=C(C)CC1=C(OCC)C(OC)(OCC)C1=O` (stereo unspecified) gave a TGI [2] of over 100 µM, a TGI [3] of over 100 µM and a TGI [4] of over 100 µM. It also gave a TGI [5] of over 100 µM, a TGI [6] of over 100 µM and a TGI [7] of over 100 µM. It also gave a TGI [8] of over 100 µM, a TGI [9] of over 100 µM and a TGI [10] of over 100 µM. For the same compound, the TGI [11] was over 100 µM, the TGI [12] was over 100 µM and the TGI [13] was over 100 µM. It also gave a TGI [14] of over 100 µM, a TGI [15] of over 100 µM and a TGI [16] of over 100 µM. It also gave a TGI [17] of over 100 µM, a TGI [19] of over 100 µM and a TGI [18] of over 100 µM.

Work on `c1ccc(C2C3=C(CCCC3)Nc3nc4cc5ccccc5cc4n32)cc1` (stereo unspecified) yielded a TGI [1] of over 100 µM, a TGI [2] of over 100 µM and a TGI [3] of over 100 µM. For the same compound, the TGI [4] was over 100 µM, the TGI [5] was over 100 µM and the TGI [6] was over 100 µM. It also gave a TGI [7] of over 100 µM, a TGI [8] of over 100 µM and a TGI [9] of over 100 µM. The TGI [10] was over 100 µM, the TGI [11] was over 100 µM and the TGI [12] was over 100 µM. For the same compound, the TGI [13] was over 100 µM, the TGI [14] was over 100 µM and the TGI [15] was over 100 µM. For the same compound, the TGI [16] was over 100 µM, the TGI [17] was over 100 µM and the TGI [19] was over 100 µM.

For `COC(=O)C(=O)c1c2ccccc2n2ccc3c4ccccc4[nH]c3c12`, the TGI [1] was over 10 µM, the TGI [2] was over 10 µM and the TGI [3] was over 10 µM. It also gave a TGI [4] of over 10 µM, a TGI [5] of over 10 µM and a TGI [6] of over 10 µM. The TGI [7] was over 10 µM, the TGI [8] was over 10 µM and the TGI [9] was over 10 µM. For the same compound, the TGI [10] was over 10 µM, the TGI [11] was over 10 µM and the TGI [12] was over 10 µM. For the same compound, the TGI [14] was over 10 µM, the TGI [15] was over 10 µM and the TGI [16] was over 10 µM. The TGI [17] was over 10 µM, the TGI [19] was over 10 µM and the TGI [18] was over 10 µM.

In the case of `CC(=O)OCC1OC(n2c(C)c(N=Nc3ccccc3)c(C)c(C#N)c2=S)C(OC(C)=O)C(OC(C)=O)C1OC(C)=O` (stereo unspecified), the TGI [1] is reported as over 100 µM, the TGI [2] is reported as 7.03 µM and the TGI [3] is reported as over 100 µM. The TGI [4] was over 100 µM, the TGI [6] was over 100 µM and the TGI [7] was over 100 µM. For the same compound, the TGI [8] was 44.1 µM, the TGI [9] was over 100 µM and the TGI [10] was over 100 µM. For the same compound, the TGI [11] was over 100 µM, the TGI [12] was 44.8 µM and the TGI [13] was over 100 µM. The TGI [14] was over 100 µM, the TGI [16] was over 100 µM and the TGI [17] was over 100 µM. For the same compound, the TGI [19] was over 100 µM and the TGI [18] was 81.8 µM.

Work on `OCC1OC(Oc2cc(O)cc(/C=C\c3ccc(O)cc3)c2)C(O)C(O)C1O` (stereo unspecified) yielded a TGI [1] of over 100 µM, a TGI [2] of over 100 µM and a TGI [3] of over 100 µM. The TGI [5] was over 100 µM, the TGI [6] was over 100 µM and the TGI [7] was over 100 µM. It also gave a TGI [8] of over 100 µM, a TGI [9] of over 100 µM and a TGI [10] of over 100 µM. For the same compound, the TGI [11] was over 100 µM, the TGI [12] was over 100 µM and the TGI [13] was over 100 µM. For the same compound, the TGI [15] was over 100 µM, the TGI [16] was over 100 µM and the TGI [17] was over 100 µM. For the same compound, the TGI [19] was over 100 µM and the TGI [18] was over 100 µM.

`CCOP(=O)(OCC)C1CC(O)CN1OC(=O)C(C)(C)C` (stereo unspecified) gave a TGI [1] of over 100 µM, a TGI [2] of over 100 µM and a TGI [3] of over 100 µM. For the same compound, the TGI [4] was over 100 µM, the TGI [5] was over 100 µM and the TGI [6] was over 100 µM. The TGI [7] was over 100 µM, the TGI [8] was over 100 µM and the TGI [9] was over 100 µM. The TGI [11] was over 100 µM, the TGI [12] was over 100 µM and the TGI [13] was over 100 µM. It also gave a TGI [14] of over 100 µM, a TGI [15] of over 100 µM and a TGI [16] of over 100 µM. For the same compound, the TGI [17] was over 100 µM and the TGI [18] was over 100 µM.

For `CCc1ccc(Nc2cc(=O)[nH]c(SCc3ccccc3)n2)cc1`, the TGI [1] was over 100 µM, the TGI [2] was over 100 µM and the TGI [3] was over 100 µM. It also gave a TGI [4] of over 100 µM, a TGI [6] of over 100 µM and a TGI [7] of over 100 µM. The TGI [8] was over 100 µM, the TGI [9] was over 100 µM and the TGI [11] was over 100 µM. The TGI [12] was over 100 µM, the TGI [14] was over 100 µM and the TGI [15] was over 100 µM. For the same compound, the TGI [16] was over 100 µM, the TGI [17] was over 100 µM and the TGI [19] was over 100 µM. The TGI [18] was over 100 µM.

`CC1=C2C(=O)OCC23C=COC3(C)O1` (stereo unspecified) showed a TGI [1] of over 100 µM, a TGI [2] of 77.3 µM and a TGI [3] of over 100 µM. For the same compound, the TGI [4] was over 100 µM, the TGI [5] was over 100 µM and the TGI [6] was over 100 µM. It also gave a TGI [7] of over 100 µM, a TGI [8] of over 100 µM and a TGI [9] of over 100 µM. The TGI [10] was over 100 µM, the TGI [11] was over 100 µM and the TGI [12] was over 100 µM. It also gave a TGI [13] of 46.3 µM, a TGI [14] of over 100 µM and a TGI [15] of over 100 µM. It also gave a TGI [16] of 95.9 µM, a TGI [17] of over 100 µM and a TGI [18] of over 100 µM.

`Cc1cn(C2CC(O)C(Cn3cc(Cn4ncc(=O)[nH]c4=O)nn3)O2)c(=O)[nH]c1=O` (stereo unspecified) was tested, and the TGI [1] was over 100 µM, the TGI [2] was over 100 µM and the TGI [3] was over 100 µM. The TGI [4] was over 100 µM, the TGI [5] was over 100 µM and the TGI [6] was over 100 µM. The TGI [7] was over 100 µM, the TGI [8] was over 100 µM and the TGI [9] was over 100 µM. The TGI [11] was over 100 µM, the TGI [12] was over 100 µM and the TGI [13] was over 100 µM. The TGI [14] was over 100 µM, the TGI [15] was over 100 µM and the TGI [16] was over 100 µM. It also gave a TGI [17] of over 100 µM, a TGI [19] of over 100 µM and a TGI [18] of over 100 µM.

`O=C1CC(CC(O)C(O)C(O)CO)CC(=O)N1` (stereo unspecified) was tested, and the TGI [1] was over 100 µM, the TGI [2] was over 100 µM and the TGI [3] was over 100 µM. It also gave a TGI [4] of over 100 µM, a TGI [5] of over 100 µM and a TGI [6] of over 100 µM. The TGI [7] was over 100 µM, the TGI [8] was over 100 µM and the TGI [9] was over 100 µM. The TGI [10] was over 100 µM, the TGI [12] was over 100 µM and the TGI [13] was over 100 µM. The TGI [14] was over 100 µM, the TGI [15] was over 100 µM and the TGI [16] was over 100 µM. It also gave a TGI [17] of over 100 µM and a TGI [19] of over 100 µM.

Compound `Cn1c(=O)[nH]c2[nH]c3ccccc3c2c1=O` has a TGI [1] of over 100 µM, a TGI [2] of over 100 µM and a TGI [3] of over 100 µM. It also gave a TGI [4] of over 100 µM, a TGI [5] of over 100 µM and a TGI [6] of over 100 µM. It also gave a TGI [7] of over 100 µM, a TGI [8] of over 100 µM and a TGI [9] of over 100 µM. For the same compound, the TGI [11] was over 100 µM, the TGI [12] was over 100 µM and the TGI [13] was over 100 µM. The TGI [14] was over 100 µM, the TGI [15] was over 100 µM and the TGI [16] was over 100 µM. For the same compound, the TGI [17] was over 100 µM, the TGI [19] was over 100 µM and the TGI [18] was over 100 µM.
